Test results taken from patent US20240261274A1, “TREATMENT OF MYC-DRIVEN CANCERS WITH GSPT1 DEGRADERS” (MONTE ROSA THERAPEUTICS, INC., priority 2021, published 2024).

How the values were obtained:
[1] = system: MDA-MB-468, MDA-MB-231, MDA-MB-436 and CAL51 triple negative breast cancer models; assay: In vivo anti-tumor activity of compound 8 in triple negative breast cancer models; parameters: species or system mice; conditions: i.p. 37 and 75 mpk, 21 continuous days; all four models
Experimental: Shown are representative examples of triple negative breast cancer models with high 4EBP1 marker expression levels. Tumor growth was measured in MDA-MB-468 (ATCC HTB-132) (A), MDA-MB-231 (ATCC HTB-26) (B), MDA-MB-436 (ATCC HTB-130) (C) and CAL51 (DSMZ-ACC-302) (D) as indicated. compound 8 was dosed i.p at 37 and 75 mpk for 21 continuous days and tumor size measured every three days. Vehicle (black line), compound 8 dosed daily at 37 mpk (light grey) and 75 mpk (dark grey). X-axis represents days; y-axis represents the tumor volume (mm^3).

[2] = system: cells for which cereblon was knocked out; assay: Viability in cereblon knock-out cells; format: cell-based
Source text: X-axis axis represents m concentration of compound 8; y-axis represents viability normalized to DMSO.

[3] = system: NCI-H1155 xenograft (human non small cell lung cancer); assay: NCI-H1155 xenograft efficacy study (compound 210); format: in vivo, BALB/c nude mice
Experimental: For the NCI-H1155 xenograft study, cells (human non small cell lung cancer, ATCC CRL-5818) were maintained in vitro as suspension culture in ATCC-formulated DMEM:F12 Medium supplemented as recommended by the provider and kept at 37° C. in an atmosphere of 5% CO2 in air. Cells (0.5 million) were resuspended in 0.2 mL of PBS with Matrigel (50:50) and inoculated into female BALB/c nude mice, 6-8 weeks old, and allowed to grow to 150 mm^3 in size. Mice were dosed orally with either vehicle or compound 210 at 1 or 3 mg per kilogram daily (filled squares and filled triangles, respectively) or 6 mg per kilogram for 5 continuous days followed by 9 days treatment holidays (5 On-9 off) (filled inverted triangles). Compound formulations were prepared fresh daily in 5% vDMSO/95% (30% w/v HP-β-CD in water). Gemcitabine dosed at 40 mg per kilogram, IP, Q4D×5 was used as a positive control (filled rhombi). For this study, mice were dosed for 21 days with tumor volumes measured every 3 days.

[4] = system: human cell line NCI-H526 xenograft; assay: N-Myc-driven mouse xenograft model, NCI-H526, compound 210 oral; format: in vivo
[5] = system: MM1 S multiple myeloma cell line derived xenograft; assay: MM1 S multiple myeloma CDX efficacy study; format: in vivo, immunodeficient mice; conditions: oral daily 1, 3 and 10 mg/kg
Experimental: Cell line derived xenograft (CDX) models were produced for the MM1 S multiple myeloma (MM) cell line in immunodeficient mice. Oral dosing of Compound 345 was performed daily at doses of 1 mg/kg, 3 mg/kg, and 10 mg/kg as well as lenalidomide at 50 mg/kg and a no-drug vehicle control. Tumor volumes were measured (mm^3) at regular intervals over the course of 20 to 50 days depending on the animal.
In vivo efficacy study: NCI-H1155, MM1 S, WSU-DLCL2, DOHH-2 cells were maintained in vitro in individual medium and conditions as recommended by the providers and incubated at 37° C. in an atmosphere of 5% CO2 in air. 0.5 million (NCI-H1155), 10 million (MM1S) or 5 million (WSU-DLCL2 and DOHH-2) cells were resuspended in typically 0.1-0.2 mL of PBS with Matrigel (50:50) and were inoculated into 6-8 weeks old BALB/c nude female (NCI-H115, WSU-DLCL2), NOD/SCID (MM1S) or CB-17SCID (DOHH-2) mice and allowed to grow to 150-200 mm3 in size. Mice were dosed orally (PO) and daily (QD) with either vehicle or Compound 345 typically at 1.0 mg/kg, 3.0 mg/kg and 10 mg/kg. […] Tumor volumes were measured at least twice weekly during the treatment period using a caliper and the volume was expressed in mm3 using the formula: V=0.5 a×b2 where a and b were the long and short diameters of the tumor, respectively. […] Data are expressed as the mean±SEM. All data was analyzed using GraphPad Prism 8.1.2 (GraphPad).

[6] = system: NSCLC cell lines; assay: Viability assay, 72 hr CellTiter Glo, NSCLC cell line panel (Compound 345); format: cell-based; conditions: panel of NSCLC cell lines
Experimental: EC50 scores for Compound 345 were measured in a panel of NSCLC cell lines. Each cell line was scored for NSCLC biomarkers and EC50 values were plotted against NSCLC biomarker score. Results of this experiment are shown in the scatter plot of FIG. 11A. High N-Myc expressing cell lines were enriched in the lower right quadrant of the scatterplot, indicating high NSCLC biomarker scores and high sensitivity to Compound 345.
Viability assay: Compound 345 was tested in a panel of 156 lung cancer cell lines (including non small cell lung cancer (NSCLC) and small cell lung cancer (SCLC) cell lines and 46 lymphoma cell lines using a 72 hr CellTiter Glo assay format. Cells were sub-cultured as recommended by the providers (ATCC, DSMZ) and incubated at 37° C., 5% CO2. All cells were authenticated and confirmed by Short Tandem Repeat (STR) profiling. Briefly, each lung cancer cell line was preferentially seeded in 384-well plates (100 μL/well) at a density previously determined to be in log growth phase 72 hour post-seeding (typically in the 400-2400 cells/well range). […] Cell viability was assessed using the CellTiter-Glo® 2.0 Assay as recommended by the Manufacturer (Promega, Cat. No. G7558, Lot. No. 0000385738) and measurements performed on the EnSpire multimode plate reader (Perkin Elmer). […]

## Cc1ccc(NC(=O)NCc2ccc3c(c2)C(=O)N(C2CCC(=O)NC2=O)C3)cc1Cl (stereo not drawn) [Compound 8]
[1]
  anti-tumor activity (tumor volume): robust and dose-dependent anti-tumor activity, including regressions
[2]
  induction of death (viability normalized to DMSO): did not induce death

## Cc1ccc(NC(=O)OCc2ccc3c(c2)C(=O)N(C2CCC(=O)NC2=O)C3)cc1Cl (stereo not drawn) [Compound 210]
[3]; oral administration, NCI-H1155 xenograft mice
  body weight: no body weight loss observed
[3]; oral, 1 mg/kg once daily
  tumor growth: tumor growth was suppressed for two weeks
[3]; oral, 3 mg/kg once daily
  tumor size: tumor size decreased, became undetectable by day eight
[3]; oral, 6 mg/kg five days on and nine days off
  tumor size: tumor size decreased, became undetectable by day eight
[4]; 3 mg/kg once daily
  tumor size: tumor size decreased and remained so until the end of the study
[4]; 6 mg/kg, five days on and nine days off
  tumor size: tumor size decreased and remained so until the end of the study
[4]; oral administration
  body weight: no body weight loss observed
  tumor growth: tumor growth inhibition

## O=C1CCC(N2Cc3ccc(COC(=O)Nc4cc(OC(F)(F)F)ccc4F)cc3C2=O)C(=O)N1 (stereo not drawn) [Compound 345, (2-(2,6-dioxopiperidin-3-yl)-3-oxoisoindolin-5-yl)methyl(2-fluoro-5-(trifluoromethoxy)phenyl)carbamate]
[5]
  tumor volume: anti-tumor activity
[6]
  cell viability in Myc-driven and non-Myc-driven NSCLC: cell viability was significantly reduced in only Myc-driven NSCLC
